Biological target: Aurora B (Homo sapiens, UniProt Q96GD4)
Type: biochemical

Aurora B, sequence (Q96GD4 whole entry): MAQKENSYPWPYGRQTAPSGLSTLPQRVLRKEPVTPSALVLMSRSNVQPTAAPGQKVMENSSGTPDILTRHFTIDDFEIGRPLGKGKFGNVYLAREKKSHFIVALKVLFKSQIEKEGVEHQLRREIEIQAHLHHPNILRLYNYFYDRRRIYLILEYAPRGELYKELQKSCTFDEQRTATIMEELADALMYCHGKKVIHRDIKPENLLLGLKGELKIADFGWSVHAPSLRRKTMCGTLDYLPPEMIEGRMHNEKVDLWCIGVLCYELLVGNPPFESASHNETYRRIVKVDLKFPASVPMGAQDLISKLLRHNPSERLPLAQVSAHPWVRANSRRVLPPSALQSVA

Q: For `O=C(/C=C/c1ccc2c(c1)OCO2)/C=C1/C(=O)Nc2ccccc21` [HOI-07, (E)-3-((E)-4-(benzo[d][1,3]dioxol-5-yl)-2-oxobut-3-en-1-ylidene)indolin-2-one], which IC50 is on record?
A: Its IC50 is ~100 nM.
